Where two headings read alike, the source gives them in different places.
How the values were obtained:
Assay type in all cases: in vivo
[1] = test system: Abutilon theophrasti (ABUTH); test: Post-emergence herbicidal action against ABUTH; conditions: visual rating about 3 weeks after treatment vs untreated controls (100% = plants have died, 0% = like control plants)
Procedure, shortened: (§1)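 Rates were 320 g/ha or below, applied as aqueous WP/EC spray with 0.5% additive (600 l/ha) onto one-leaf-stage plants. About 3 weeks later in the greenhouse, damage was scored visually against untreated plants on a 0–100% scale, where 100% means plants died.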

[2] = test system: Amaranthus retroflexus (AMARE); test: Post-emergence herbicidal action against AMARE
Procedure, shortened: as §1

Avena fatua (AVEFA) [3] = test: Pre-emergence herbicidal action against AVEFA; conditions: visual scoring after about 3 weeks vs untreated controls
Procedure, shortened: (§2)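 Pre-emergence soil-surface spray of compound, formulated as wettable powder or emulsion concentrate, in aqueous suspension or emulsion with 0.5% additive (600 l/ha; rate 320 g/ha or less). Activity rated visually after roughly 3 weeks in the greenhouse as a percentage of untreated controls, 0% meaning no difference.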

Lolium rigidum (LOLRI) [4] = test: Pre-emergence herbicidal action against LOLRI
Procedure, shortened: as §2

[5] = test system: Pharbitis purpurea (PHBPU); test: Pre-emergence herbicidal action against PHBPU
Procedure, shortened: as §2

[6] = test system: Verconica persica (VERPE); test: Pre-emergence herbicidal action against VERPE
Procedure, shortened: as §2

[7] = test system: Echinochloa crus-galli (ECHCG); test: Post-emergence herbicidal action against ECHCG
Procedure, shortened: as §1

Oryza sativa (ORYSA) = conditions: crop plant compatibility
Procedure, shortened: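 Effects were read visually as % versus untreated controls (0% = no effect, 100% = death) about 3 weeks post-treatment. Application was a post-emergence spray at the one-leaf stage of WP/EC formulations with 0.5% additive at 600 l/ha. Different dosages are denoted a, b and c.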

[8] = test system: Alopecurus myosuroides (ALOMY); test: Pre-emergence herbicidal action against ALOMY; conditions: scored visually after about 3 weeks, 100% = plants have died
Procedure, shortened: as §2

Lolium rigidum (LOLRI) [9] = test: Post-emergence herbicidal action against LOLRI
Procedure, shortened: as §1

Setaria viridis (SETVI) [10] = test: Post-emergence herbicidal action against SETVI
Procedure, shortened: as §1

[11] = test system: Verconica persica (VERPE); test: Post-emergence herbicidal action against VERPE
Procedure, shortened: as §1

[12] = test system: Polygonum convolvulus (POLCO); test: Pre-emergence herbicidal action against POLCO
Procedure, shortened: as §2

[13] = test system: Echinochloa crus-galli (ECHCG); test: Pre-emergence herbicidal action against ECHCG
Procedure, shortened: as §2

Viola tricolor (VIOTR) [14] = test: Pre-emergence herbicidal action against VIOTR
Procedure, shortened: as §2

[15] = test system: Alopecurus myosuroides (ALOMY); test: Post-emergence herbicidal action against ALOMY; conditions: visual rating about 3 weeks after treatment vs untreated controls (100% = plants have died, 0% = like control plants)
Procedure, shortened: as §1

[16] = test system: Pharbitis purpurea (PHBPU); test: Post-emergence herbicidal action against PHBPU
Procedure, shortened: as §1

[17] = test system: Amaranthus retroflexus (AMARE); test: Pre-emergence herbicidal action against AMARE; conditions: visual scoring after about 3 weeks vs untreated controls
Procedure, shortened: as §2

[18] = test system: Matricaria inodora (MATIN); test: Pre-emergence herbicidal action against MATIN
Procedure, shortened: as §2

[19] = test system: Abutilon theophrasti (ABUTH); test: Pre-emergence herbicidal action against ABUTH; conditions: Dosage column 320 g/ha (title prints 3200 g/ha); scored visually after about 3 weeks; 100% = plants have died
Source text: Seeds of monocotyledonous and dicotyledonous weed plants and crop plants are placed in plastic or organic planting pots and covered with soil. The compounds of the invention, formulated in the form of wettable powders (WP) or as emulsion concentrates (EC), are then applied to the surface of the covering soil as aqueous suspension or emulsion with addition of 0.5% additive at a water application rate equivalent to 600 l/ha. After the treatment, the pots are placed in a greenhouse and kept under good growth conditions for the trial plants. After about 3 weeks, the effect of the preparations is scored visually in comparison with untreated controls as percentages. For example, 100% activity=the plants have died, 0% activity=like control plants.
Tables A1 to A13 below show the effects of selected compounds of the general formula (I) on various harmful plants and at an application rate corresponding to 320 g/ha or lower, which were obtained by the experimental procedure mentioned above. The appendices “a”, “b” and “c” give differentiation by dosage used with otherwise the same harmful plants tested.

Setaria viridis (SETVI) [20] = test: Pre-emergence herbicidal action against SETVI
Procedure, shortened: as §2

Avena fatua (AVEFA) [21] = test: Post-emergence herbicidal action against AVEFA; conditions: visual rating about 3 weeks after treatment
Procedure, shortened: as §1

Viola tricolor (VIOTR) [22] = test: Post-emergence herbicidal action against VIOTR
Procedure, shortened: as §1

[23] = test system: Polygonum convolvulus (POLCO); test: Post-emergence herbicidal action against POLCO; conditions: dosage 320 g/ha
Procedure, shortened: as §1

[24] = 80 g/ha, visual rating about 3 weeks after treatment vs untreated controls (100% = plants have died, 0% = like control plants)
[25] = 80 g/ha, effect in comparison to untreated controls

Row | Structure (SMILES) | Post-emergence action against AMARE in % [2, 24] [%] | Pre-emergence action against AVEFA in % (Avena fatua (AVEFA) [3]; 320 g/ha) [%] | Pre-emergence action against LOLRI in % (Lolium rigidum (LOLRI) [4]; dosage 80 g/ha) [%] | Pre-emergence action against LOLRI in % (Lolium rigidum (LOLRI) [4]; dosage 320 g/ha) [%] | Pre-emergence action against PHBPU in % ([5]; dosage 320 g/ha) [%] | Pre-emergence action against VERPE in % ([6]; dosage 320 g/ha) [%] | Post-emergence action against ECHCG in % ([7]; dosage 80 g/ha) [%] | Pre-emergence action against ALOMY ([8]; 320 g/ha) [%] | Post-emergence action against LOLRI in % (Lolium rigidum (LOLRI) [9]; dosage 80 g/ha) [%] | Post-emergence action against SETVI in % (Setaria viridis (SETVI) [10]; dosage 80 g/ha) [%] | Post-emergence action against VERPE in % ([11]; dosage 80 g/ha) [%] | Pre-emergence action against POLCO in % ([12]; dosage 80 g/ha) [%] | Pre-emergence action against POLCO in % ([12]; dosage 320 g/ha) [%] | Pre-emergence action against ECHCG in % ([13]; dosage 320 g/ha) [%] | Pre-emergence action against VIOTR in % (Viola tricolor (VIOTR) [14]; 320 g/ha, Viola tricolor) [%] | Pre-emergence action against VIOTR in % (Viola tricolor (VIOTR) [14]; dosage 80 g/ha) [%] | Post-emergence action against PHBPU in % ([16]; dosage 80 g/ha) [%] | Pre-emergence action against AMARE in % ([17]; 80 g/ha) [%] | Pre-emergence action against AMARE in % ([17]; 320 g/ha) [%] | Pre-emergence action against ABUTH [19] [%] | also measured
1 | COC(=O)[C@@H](C)Oc1nn(-c2ccccn2)c(-c2cncc(F)c2)c1Br [Example I-83] | 90 | 90 | 100 | 100 | 90 | 100 | 90 | 100 | 90 | 90 | 80 | 80 | 90 | 100 | 100 | 100 | 90 | 90 | 100 | 80 | Post-emergence action against ABUTH in % ([1]; 80 g/ha): 90%; Pre-emergence action against AVEFA in % (Avena fatua (AVEFA) [3]; 80 g/ha): 80%; Pre-emergence action against PHBPU in % ([5]; dosage 80 g/ha): 80%; Pre-emergence action against VERPE in % ([6]; dosage 80 g/ha): 90%; Post-emergence action against ORYSA in % (Oryza sativa (ORYSA); 20 g/ha, effect vs untreated controls): 0%; Post-emergence action against ORYSA in % (Oryza sativa (ORYSA); [25]): 20%; Pre-emergence action against ALOMY ([8]; 80 g/ha): 90%; Post-emergence action against ALOMY in % ([15]; 80 g/ha): 100%; Pre-emergence action against MATIN in % ([18]; dosage 80 g/ha): 90%; Pre-emergence action against MATIN in % ([18]; dosage 320 g/ha): 100%; Pre-emergence action against SETVI in % (Setaria viridis (SETVI) [20]; dosage 80 g/ha): 90%; Pre-emergence action against SETVI in % (Setaria viridis (SETVI) [20]; dosage 320 g/ha): 100%; Post-emergence action against AVEFA in % (Avena fatua (AVEFA) [21]; 80 g/ha): 100%
2 | CCOC(=O)[C@@H](C)Oc1nn(-c2nc(F)ccc2F)c(-c2cncc(F)c2)c1Br [Example I-388] | – | 90 | 80 | 100 | 90 | 100 | 90 | 100 | 80 | 90 | 80 | 90 | 90 | 100 | 100 | 100 | 80 | 90 | 100 | 90 | Post-emergence action against ABUTH in % ([1]; 320 g/ha): 80%; Post-emergence action against VIOTR in % (Viola tricolor (VIOTR) [22]; 320 g/ha): 80%; Pre-emergence action against PHBPU in % ([5]; dosage 80 g/ha): 90%; Pre-emergence action against VERPE in % ([6]; dosage 80 g/ha): 90%; Post-emergence action against ECHCG in % ([7]; dosage 320 g/ha): 90%; Pre-emergence action against ALOMY ([8]; 80 g/ha): 80%; Post-emergence action against LOLRI in % (Lolium rigidum (LOLRI) [9]; dosage 320 g/ha): 80%; Post-emergence action against SETVI in % (Setaria viridis (SETVI) [10]; dosage 320 g/ha): 90%; Post-emergence action against VERPE in % ([11]; 320 g/ha, VERPE): 80%; Pre-emergence action against ECHCG in % ([13]; dosage 80 g/ha): 80%; Post-emergence action against ALOMY in % ([15]; 320 g/ha): 80%; Post-emergence action against PHBPU in % ([16]; dosage 320 g/ha): 100%; Pre-emergence action against MATIN in % ([18]; dosage 80 g/ha): 90%; Pre-emergence action against MATIN in % ([18]; dosage 320 g/ha): 90%; Pre-emergence action against SETVI in % (Setaria viridis (SETVI) [20]; dosage 80 g/ha): 90%; Pre-emergence action against SETVI in % (Setaria viridis (SETVI) [20]; dosage 320 g/ha): 100%; Post-emergence action against AVEFA in % (Avena fatua (AVEFA) [21]; 320 g/ha): 80%
3 | COC(=O)CCOC(=O)[C@@H](C)Oc1nn(-c2ccccn2)c(-c2ccc(F)nc2)c1Cl [Example I-340] | 80 | 90 | 100 | 100 | 80 | 100 | 80 | 100 | 90 | 80 | 80 | 80 | 90 | 100 | 100 | 100 | 90 | 90 | 100 | 80 | Post-emergence action against ABUTH in % ([1]; 320 g/ha): 80%; Post-emergence action against AMARE in % ([2]; 320 g/ha, visual rating about 3 weeks after treatment): 90%; Post-emergence action against VIOTR in % (Viola tricolor (VIOTR) [22]; 80 g/ha): 90%; Post-emergence action against VIOTR in % (Viola tricolor (VIOTR) [22]; 320 g/ha): 90%; Pre-emergence action against AVEFA in % (Avena fatua (AVEFA) [3]; 80 g/ha): 80%; Post-emergence action against ECHCG in % ([7]; dosage 320 g/ha): 90%; Post-emergence action against ORYSA in % (Oryza sativa (ORYSA); [25]): 0%; Post-emergence action against ORYSA in % (Oryza sativa (ORYSA); 320 g/ha, effect in comparison to untreated controls): 0%; Post-emergence action against LOLRI in % (Lolium rigidum (LOLRI) [9]; dosage 320 g/ha): 90%; Post-emergence action against SETVI in % (Setaria viridis (SETVI) [10]; dosage 320 g/ha): 90%; Post-emergence action against VERPE in % ([11]; 320 g/ha, VERPE): 90%; Post-emergence action against ALOMY in % ([15]; 80 g/ha): 90%; Post-emergence action against ALOMY in % ([15]; 320 g/ha): 100%; Post-emergence action against PHBPU in % ([16]; dosage 320 g/ha): 90%; Post-emergence action against POLCO in % [23]: 90%; Post-emergence action against AVEFA in % (Avena fatua (AVEFA) [21]; 80 g/ha): 90%; Post-emergence action against AVEFA in % (Avena fatua (AVEFA) [21]; 320 g/ha): 90%
